Results on 20 compounds are retold here after patent US12012399B2, “Microbiocidal quinoline dihydro-(thiazine)oxazine derivatives” (priority 2018, dated 2024).

Data set [1] has as its system Botryotinia fuckeliana (Botrytis cinerea). In words: Botryotinia fuckeliana (Botrytis cinerea) / liquid culture (gray mould). It counts as cell-based. To be noted: 72 h, compared to untreated control, growth inhibition determined photometrically 3-4 days after application.
Data set [2] deals with Glomerella lagenarium (Colletotrichum lagenarium). The data set is described as follows: Glomerella lagenarium (Colletotrichum lagenarium) / liquid culture (anthracnose). It counts as cell-based. To be noted: Colletotrichum orbiculare, compared to untreated control, growth inhibition measured photometrically 3-4 days after application.
Data set [3] deals with Fusarium culmorum. In words: microbe, parasite or virus in culture. It counts as cell-based. The following applies: read-out: control of Fusarium culmorum.
For data set [4], the system named is Monographella nivalis (Microdochium nivale). The data set is described as follows: Monographella nivalis (Microdochium nivale) / liquid culture (foot rot cereals). It counts as cell-based. To be noted: compared to untreated control, growth inhibition determined photometrically 4-5 days after application.
Data set [5] relates to Magnaporthe grisea (Pyricularia oryzae). The data set is described as follows: microbe, parasite or virus in culture. It counts as cell-based. To be noted: read-out: control of Magnaporthe grisea.
The test system of data set [6] is Sclerotinia sclerotiorum. The data set is described as follows: microbe, parasite or virus in culture. The following applies: read-out: control of Sclerotinia sclerotiorum. It counts as cell-based.
Data set [7] has as its system Mycosphaerella graminicola (Septoria tritici). In words: Mycosphaerella graminicola (Septoria tritici) / liquid culture (Septoria blotch). It counts as cell-based. The following applies: Zymoseptoria tritici, compared to untreated control, growth inhibition determined photometrically 4-5 days after application.

Some results are limits rather than exact numbers.

As for `Cc1nc2c(F)cccc2cc1C1=NC(C)(Cc2ccccc2)CC(C)(C)O1` (stereo not shown) [E-16, 4-benzyl-2-(8-fluoro-2-methyl-3-quinolyl)-4,6,6-trimethyl-5H-1,3-oxazine], the inhibition of growth at 20 ppm in data set [1], in data set [2], in data set [3], in data set [4], in data set [5] and in data set [6] was at least 80% throughout. Besides, the inhibition of growth at 20 ppm in data set [7] is at least 70%.
Consider `CC1(C)CC(Cc2ccccc2)N=C(c2cnc3c(F)c(C#N)ccc3c2)O1` (stereo not shown) [E-34, 3-(4-benzyl-6,6-dimethyl-4,5-dihydro-1,3-oxazin-2-yl)-8-fluoro-quinoline-7-carbonitrile], for which the inhibition of growth at 20 ppm in data set [2] and in data set [4] was at least 80% each time.
In general, melting point refers to the temperature of the solid-liquid transition. As for `CC1(C)CC(Cc2ccccc2)N=C(c2cnc3c(F)c(F)ccc3c2)O1` (stereo not shown) [E-8, 4-benzyl-2-(7,8-difluoro-3-quinolyl)-6,6-dimethyl-4,5-dihydro-1,3-oxazine], the melting point is 93 to 96 °C. The inhibition of growth at 20 ppm in data set [2] is at least 80%.
For `Cc1c(C2=NC(C)(Cc3ccccc3)CC(C)(C)O2)cnc2c(F)cccc12` (stereo not shown) [E-15, 4-benzyl-2-(8-fluoro-4-methyl-3-quinolyl)-4,6,6-trimethyl-5H-1,3-oxazine], the inhibition of growth at 20 ppm is at least 80% in data set [1]; at least 80% in data set [2]; at least 80% in data set [4]; at least 80% in data set [5]; at least 70% in data set [7].
For `C[C@@]1(Cc2ccccc2)C[C@@](C)(CCl)OC(c2cnc3c(F)cccc3c2)=N1` [E-10, (4R,6S)-4-benzyl-6-(chloromethyl)-2-(8-fluoro-3-quinolyl)-4,6-dimethyl-5H-1,3-oxazine], the melting point lay in the range of 125 to 130 °C. In data set [1], this compound returned an inhibition of growth at 20 ppm of at least 80%. Further, the inhibition of growth at 20 ppm in data set [2] was at least 80%. Further, in data set [3], the inhibition of growth at 20 ppm is at least 80%. The same compound displayed an inhibition of growth at 20 ppm in data set [4] of at least 80%. In addition, in data set [5], the inhibition of growth at 20 ppm was at least 80%. Further, the inhibition of growth at 20 ppm in data set [6] is at least 80%. This compound also had an inhibition of growth at 20 ppm in data set [7] of at least 70%.
Regarding `CCC1(C)CC(C)(Cc2ccccc2)N=C(c2cnc3c(F)cccc3c2)O1` (stereo not shown) [E-9, 4-benzyl-6-ethyl-2-(8-fluoro-3-quinolyl)-4,6-dimethyl-5H-1,3-oxazine], the inhibition of growth at 20 ppm in data set [1], in data set [2], in data set [3], in data set [4], in data set [5] and in data set [6] was at least 80% throughout. The same compound registered an inhibition of growth at 20 ppm in data set [7] of at least 70%.
Consider `CC1(C)CC(Cc2ccccc2)N=C(c2cnc3c(F)c(F)ccc3c2)S1` (stereo not shown) [E-6, 4-benzyl-2-(7,8-difluoro-3-quinolyl)-6,6-dimethyl-4,5-dihydro-1,3-thiazine], for which the melting point was 153 to 155 °C. The same compound displayed an inhibition of growth at 20 ppm in data set [1] of at least 80%. Besides, the inhibition of growth at 20 ppm in data set [2] is at least 80%. Further, the inhibition of growth at 20 ppm in data set [3] is at least 80%. Also, the inhibition of growth at 20 ppm in data set [4] was at least 80%.
On to `CC1(C)CC(Cc2ccccc2)N=C(c2cnc3ccccc3c2)O1` (stereo not shown) [E-5, 4-benzyl-6,6-dimethyl-2-(3-quinolyl)-4,5-dihydro-1,3-oxazine], for which the inhibition of growth at 20 ppm in data set [1] was at least 80%; in data set [2], at least 80%; in data set [3], at least 80%; in data set [4] it was at least 80%; in data set [7], at least 70%.
`CC1(C)CC(Cc2ccccc2)N=C(c2cnc3c(F)c(Cl)ccc3c2)O1` (stereo not shown) [E-29, 4-benzyl-2-(7-chloro-8-fluoro-3-quinolyl)-6,6-dimethyl-4,5-dihydro-1,3-oxazine] gave a melting point of 135 to 137 °C. The same compound registered an inhibition of growth at 20 ppm in data set [2] of at least 80%. Besides, in data set [4], the inhibition of growth at 20 ppm was at least 80%. The compound further yielded an inhibition of growth at 20 ppm in data set [7] of at least 70%.
The compound `CC1(C)CC(Cc2ccccc2)N=C(c2cc3cccc(F)c3nc2F)O1` (stereo not shown) [E-30, 4-benzyl-2-(2,8-difluoro-3-quinolyl)-6,6-dimethyl-4,5-dihydro-1,3-oxazine] had a melting point of 105 to 107 °C. In data set [1], this compound gave an inhibition of growth at 20 ppm of at least 80%. Moreover, the inhibition of growth at 20 ppm in data set [3] is at least 80%. Besides, the inhibition of growth at 20 ppm in data set [4] was at least 80%. Moreover, the inhibition of growth at 20 ppm in data set [5] is at least 80%. In data set [7], this compound had an inhibition of growth at 20 ppm of at least 70%.
In turn, `CC1(Cc2ccccc2)CC(C)(C)OC(c2cnc3c(F)cccc3c2)=N1` (stereo not shown) [F-2] displayed a melting point of 111 to 112 °C. The inhibition of growth at 20 ppm in data set [6] was at least 80%.
For `CC1(C)CC(Cc2ccccc2)N=C(c2cnc3c(F)cccc3c2)O1` (stereo not shown) [E-13, 4-benzyl-2-(8-fluoro-3-quinolyl)-6,6-dimethyl-4,5-dihydro-1,3-oxazine], the melting point lay in the range of 90 to 92 °C. The compound also showed an inhibition of growth at 20 ppm in data set [1] of at least 80%. The same compound yielded an inhibition of growth at 20 ppm in data set [2] of at least 80%. Further, the inhibition of growth at 20 ppm in data set [3] was at least 80%. The inhibition of growth at 20 ppm in data set [4] was at least 80%. For the same compound, the inhibition of growth at 20 ppm in data set [5] was at least 80%. Moreover, in data set [6], the inhibition of growth at 20 ppm is at least 80%. For the same compound, in data set [7], the inhibition of growth at 20 ppm is at least 70%.
On to `CC1(C)CC(Cc2ccc(F)cc2)N=C(c2cnc3c(F)c(F)ccc3c2)O1` (stereo not shown) [E-18, 2-(7,8-difluoro-3-quinolyl)-4-[(4-fluorophenyl)methyl]-6,6-dimethyl-4,5-dihydro-1,3-oxazine], for which the melting point lay within 118 to 121 °C. In addition, the inhibition of growth at 20 ppm in data set [1] is at least 80%. The compound also came in with an inhibition of growth at 20 ppm in data set [4] of at least 80%. Moreover, the inhibition of growth at 20 ppm in data set [5] was at least 80%. For the same compound, the inhibition of growth at 20 ppm in data set [6] was at least 80%. In addition, the inhibition of growth at 20 ppm in data set [7] is at least 70%.
As to `CC1CC(Cc2ccccc2)N=C(c2cnc3c(F)c(F)ccc3c2)O1` (single isomer, unassigned) [E-25, 4-benzyl-2-(7,8-difluoro-3-quinolyl)-6-methyl-5,6-dihydro-4H-1,3-oxazine], the inhibition of growth at 20 ppm in data set [1] was at least 80%; in data set [2] it was at least 80%; in data set [3], at least 80%; in data set [4], at least 80%; in data set [7], at least 70%.
For `CC1(C)CC(Cc2ccccc2)(C(F)(F)F)N=C(c2cnc3c(F)cccc3c2)O1` (stereo not shown) [E-12, 4-benzyl-2-(8-fluoro-3-quinolyl)-6,6-dimethyl-4-(trifluoromethyl)-5H-1,3-oxazine], the inhibition of growth at 20 ppm in data set [1], in data set [2], in data set [4] and in data set [5] was at least 80% throughout.
On to `CC1(C)CC(Cc2ccccc2)N=C(c2cnc3c(C#N)c(F)ccc3c2)O1` (stereo not shown) [E-28, 3-(4-benzyl-6,6-dimethyl-4,5-dihydro-1,3-oxazin-2-yl)-7-fluoro-quinoline-8-carbonitrile], for which the melting point lay in the range of 126 to 133 °C. In data set [1], this compound showed an inhibition of growth at 20 ppm of at least 80%. The inhibition of growth at 20 ppm in data set [4] is at least 80%. Also, the inhibition of growth at 20 ppm in data set [5] was at least 80%.
In turn, `CC1(Cc2ccccc2)CC(C)(C)OC(c2cnc3c(F)cccc3c2)=N1` (stereo not shown) [E-17, 4-benzyl-2-(8-fluoro-3-quinolyl)-4,6,6-trimethyl-5H-1,3-oxazine] gave a melting point of 115 to 116 °C. The compound also yielded an inhibition of growth at 20 ppm in data set [1] of at least 80%. The same compound yielded an inhibition of growth at 20 ppm in data set [2] of at least 80%. Besides, the inhibition of growth at 20 ppm in data set [3] is at least 80%. In data set [4], this compound registered an inhibition of growth at 20 ppm of at least 80%. Besides, in data set [5], the inhibition of growth at 20 ppm was at least 80%. For the same compound, in data set [7], the inhibition of growth at 20 ppm was at least 70%.
`C[C@@]1(Cc2ccccc2)C[C@](C)(CCl)OC(c2cnc3c(F)cccc3c2)=N1` [E-11, (4R,6R)-4-benzyl-6-(chloromethyl)-2-(8-fluoro-3-quinolyl)-4,6-dimethyl-5H-1,3-oxazine]: the inhibition of growth at 20 ppm in data set [1] was at least 80%; in data set [2] it was at least 80%; in data set [3], at least 80%; in data set [4] it was at least 80%; in data set [5] it was at least 80%; in data set [7], at least 70%.
In the case of `CC1(C)CC(C)(C(F)(F)c2ccccc2)N=C(c2cnc3c(F)cccc3c2)O1` (stereo not shown) [E-14, 4-[difluoro(phenyl)methyl]-2-(8-fluoro-3-quinolyl)-4,6,6-trimethyl-5H-1,3-oxazine], the melting point lay within 101 to 105 °C. This compound gave an inhibition of growth at 20 ppm in data set [1] of at least 80%. This compound also returned an inhibition of growth at 20 ppm in data set [2] of at least 80%. The same compound displayed an inhibition of growth at 20 ppm in data set [4] of at least 80%. For the same compound, the inhibition of growth at 20 ppm in data set [5] was at least 80%. In data set [7], this compound registered an inhibition of growth at 20 ppm of at least 70%.
As for `CC1(Cc2ccccc2)CC(C)(C)SC(c2cnc3c(F)cccc3c2)=N1` (stereo not shown) [E-7, 4-benzyl-2-(8-fluoro-3-quinolyl)-4,6,6-trimethyl-5H-1,3-thiazine], the inhibition of growth at 20 ppm in data set [1], in data set [2], in data set [3], in data set [4], in data set [5] and in data set [6] was at least 80% in each case. Also, the inhibition of growth at 20 ppm in data set [7] was at least 70%.
